# Source: patent publication US20240287138A1, “CYCLIC PEPTIDES FOR INHIBITING TNF RECEPTOR 1 ACTIVITY” (Merck Sharp & Dohme LLC, priority 2023, published 2024)
# Numbered stars: 1 amine (or outer) side, 2 acyl side, 3 side chain; on linkers, the order of the positions; unused ones are H or OH. Bridge positions count the residues as written; N and C are the ends. Square brackets hold non-standard residues; d marks the D form. Peptide text beside a SMILES is read from it. * marks the point of attachment. Trp(βS-Me,7-OMe) = COc1cccc2c([C@H](C)[C@H](N)C(=O)O)c[nH]c12; X24 = O=C(O)c1ccc([C@@H](O)[C@H](N[*:1])C(=O)[*:2])cc1; X28 = NC(=O)c1ccc([C@H](O)[C@H](N[*:1])C(=O)[*:2])cc1; Trp(7-CN) = N#Cc1cccc2c(C[C@H](N)C(=O)O)c[nH]c12; Trp(7-Cl) = N[C@@H](Cc1c[nH]c2c(Cl)cccc12)C(=O)O; X29 = NC(=O)Cc1cccc(C[C@H](N[*:1])C(=O)[*:2])c1; Phe(4-CONH2) = NC(=O)c1ccc(C[C@H](N)C(=O)O)cc1; Phe(4-COOH) = N[C@@H](Cc1ccc(C(=O)O)cc1)C(=O)O; Trp(7-aza) = N[C@@H](Cc1c[nH]c2ncccc12)C(=O)O; dPro(4S-NH2) = N[C@@H]1CN[C@@H](C(=O)O)C1; Pip(5R-OH) = O=C(O)[C@@H]1CC[C@@H](O)CN1; X1 = O=C([C@@H]1CC[C@H](N[*:1])C1)[*:2]; X19 = O=C([C@H](Cc1ccncn1)N[*:1])[*:2]; Gly(N(CH2)3COOH) = O=C(O)CCCNCC(=O)O; Pip(4-aza) = O=C(O)[C@@H]1CNCCN1; 4Pal = N[C@@H](Cc1ccncc1)C(=O)O; NMeE = CN[C@@H](CCC(=O)O)C(=O)O; dHyp = O=C(O)[C@H]1C[C@H](O)CN1; Pip = O=C(O)[C@@H]1CCCCN1; αMeS = C[C@](N)(CO)C(=O)O; Nle = CCCC[C@H](N)C(=O)O; Sar = CNCC(=O)O; X22 = C1CC1C*
# Molecular target: T1, TNFα-induced NF-κB signal transduction pathway (TNFR1 signaling) in THP-1 cells (Homo sapiens, UniProt P19438)
# T1 sequence (P19438 30-455): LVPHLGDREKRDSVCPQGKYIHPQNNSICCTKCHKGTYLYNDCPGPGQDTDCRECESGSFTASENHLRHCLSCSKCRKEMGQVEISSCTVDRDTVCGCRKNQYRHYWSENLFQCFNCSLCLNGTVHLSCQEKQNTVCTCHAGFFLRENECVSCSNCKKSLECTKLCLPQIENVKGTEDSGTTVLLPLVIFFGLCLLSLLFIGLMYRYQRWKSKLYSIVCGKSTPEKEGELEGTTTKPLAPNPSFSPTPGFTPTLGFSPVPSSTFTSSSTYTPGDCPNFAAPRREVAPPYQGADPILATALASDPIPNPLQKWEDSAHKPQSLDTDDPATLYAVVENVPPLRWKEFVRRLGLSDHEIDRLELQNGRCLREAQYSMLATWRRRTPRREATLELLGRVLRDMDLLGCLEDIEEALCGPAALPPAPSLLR
# Test: THP-1 Lucia NF-κB reporter cell assay, inhibition of TNFα-induced NF-κB signaling
# Assay type: cell-based
# Settings: THP-1 NF-κB Lucia reporter cells, 10 ng/mL TNFα, 16-18 h, secreted luciferase; read-out: THP-1 IC50
# Procedure, shortened: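 Macrocyclic peptides were preincubated 1 h at 37 °C with THP-1 NF-κB-Lucia reporter cells (20,000 cells/well) in antibiotic-free RPMI 1640/10% FBS, then stimulated with 10 ng/mL human TNFα overnight (16-18 h). Secreted luciferase in supernatant was read by luminescence; IC50 from 4-parameter logistic fits.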
row,Structure (SMILES),IC50 [nM]
1,"COc1cccc2c([C@H](C)[C@@H]3NC(=O)CN(C)C(=O)[C@H](Cc4ccc(C(=O)O)cc4)NC(=O)[C@H](Cc4ccc(C(N)=O)cc4)NC(=O)[C@](C)(CO)NC(=O)[C@H](Cc4c[nH]c5c(C#N)cccc45)NC(=O)[C@H](Cc4ccc(C(=O)O)cc4)NC(=O)[C@H](CC(N)=O)NC(=O)[C@H]4C[C@H](O)CN4C(=O)[C@H](Cc4c[nH]c5ncccc45)NC(=O)[C@@H]4CC[C@@H](O)CN4C(=O)[C@H](Cc4ccncc4)NC(=O)[C@H](COCC4CC4)NC(=O)[C@@H]4CC[C@@H](C4)NC3=O)c[nH]c12 [SEQ ID NO. 149] (cyclo([4Pal][Pip(5R-OH)][Trp(7-aza)][dHyp]N[Phe(4-COOH)][Trp(7-CN)][αMeS][Phe(4-CONH2)][Phe(4-COOH)][Sar][Trp(βS-Me,7-OMe)][X1]S(X22)))",1.3
2,"CCCC[C@@H]1NC(=O)[C@@H]2CC[C@@H](C2)NC(=O)[C@H]([C@@H](C)c2c[nH]c3c(OC)cccc23)NC(=O)CN(C)C(=O)[C@H](Cc2cccc(CC(N)=O)c2)NC(=O)[C@H](Cc2ccc(C(=O)O)cc2)NC(=O)[C@](C)(CO)NC(=O)[C@H](Cc2c[nH]c3c(Cl)cccc23)NC(=O)[C@H](Cc2ccncc2)NC(=O)[C@H](CC(N)=O)NC(=O)[C@H](CCC(=O)O)N(C)C(=O)[C@H](Cc2c[nH]c3ccccc23)NC(=O)[C@@H]2CNCCN2C(=O)[C@H](Cc2ccncc2)NC1=O [SEQ ID NO. 153] (cyclo([4Pal][Trp(7-Cl)][αMeS][Phe(4-COOH)][X29][Sar][Trp(βS-Me,7-OMe)][X1][Nle][4Pal][Pip(4-aza)]W[NMeE]N))",2.6
3,"CCCC[C@@H]1NC(=O)[C@@H]2CC[C@@H](C2)NC(=O)[C@H]([C@@H](C)c2c[nH]c3c(OC)cccc23)NC(=O)CN(C)C(=O)[C@H]([C@H](O)c2ccc(C(=O)O)cc2)NC(=O)[C@H]([C@@H](O)c2ccc(C(N)=O)cc2)NC(=O)[C@](C)(CO)NC(=O)[C@H](Cc2c[nH]c3c(C#N)cccc23)NC(=O)[C@H](Cc2ccncc2)NC(=O)[C@H](CC(N)=O)NC(=O)[C@H]2C[C@H](O)CN2C(=O)[C@H](Cc2c[nH]c3ccccc23)NC(=O)[C@@H]2CC[C@@H](O)CN2C(=O)[C@H](Cc2ccncc2)NC1=O [SEQ ID NO. 155] (cyclo([4Pal][Trp(7-CN)][αMeS][X28][X24][Sar][Trp(βS-Me,7-OMe)][X1][Nle][4Pal][Pip(5R-OH)]W[dHyp]N))",0.9
4,"CCCC[C@@H]1NC(=O)CSC[C@@H](C(N)=O)NC(=O)[C@H]([C@@H](C)c2c[nH]c3c(OC)cccc23)NC(=O)CN(C)C(=O)[C@H](Cc2ccc(O)cc2)NC(=O)[C@H](Cc2ccc(C(=O)O)cc2)NC(=O)[C@](C)(CO)NC(=O)[C@H](Cc2c[nH]c3c(Cl)cccc23)NC(=O)[C@H](Cc2ccncc2)NC(=O)[C@H](CC(N)=O)NC(=O)CN(CCCC(=O)O)C(=O)[C@H](Cc2c[nH]c3ncccc23)NC(=O)[C@@H]2CCCCN2C(=O)[C@H](Cc2ccncc2)NC1=O [SEQ ID NO. 157] ({CH2CO}-[Nle][4Pal][Pip][Trp(7-aza)][Gly(N(CH2)3COOH)]N[4Pal][Trp(7-Cl)][αMeS][Phe(4-COOH)]Y[Sar][Trp(βS-Me,7-OMe)]C-NH2; thioether N-14)",4
5,"CCCC[C@@H]1NC(=O)[C@@H]2CC[C@@H](C2)NC(=O)[C@H]([C@@H](C)c2c[nH]c3c(OC)cccc23)NC(=O)CN(C)C(=O)[C@H](Cc2ccc(C(=O)O)cc2)NC(=O)[C@H](Cc2ccc(C(N)=O)cc2)NC(=O)[C@](C)(CO)NC(=O)[C@H](Cc2c[nH]c3c(Cl)cccc23)NC(=O)[C@H](Cc2ccncn2)NC(=O)[C@H](CC(N)=O)NC(=O)[C@H]2C[C@H](O)CN2C(=O)[C@H](Cc2c[nH]c3ncccc23)NC(=O)[C@@H]2CC[C@@H](O)CN2C(=O)[C@H](Cc2ccncc2)NC1=O [SEQ ID NO. 159] (cyclo([4Pal][Pip(5R-OH)][Trp(7-aza)][dHyp]N[X19][Trp(7-Cl)][αMeS][Phe(4-CONH2)][Phe(4-COOH)][Sar][Trp(βS-Me,7-OMe)][X1][Nle]))",0.8
6,"CCCC[C@@H]1NC(=O)[C@@H]2CC[C@@H](C2)NC(=O)[C@H]([C@@H](C)c2c[nH]c3c(OC)cccc23)NC(=O)CN(C)C(=O)[C@H](Cc2ccc(O)cc2)NC(=O)[C@H](Cc2ccc(C(=O)O)cc2)NC(=O)[C@](C)(CO)NC(=O)[C@H](Cc2c[nH]c3c(Cl)cccc23)NC(=O)[C@H](Cc2ccncc2)NC(=O)[C@H](CC(N)=O)NC(=O)[C@H]2C[C@H](N)CN2C(=O)[C@H](Cc2c[nH]c3ccccc23)NC(=O)[C@@H]2CNCCN2C(=O)[C@H](Cc2ccncc2)NC1=O [SEQ ID NO. 161] (cyclo([4Pal][Trp(7-Cl)][αMeS][Phe(4-COOH)]Y[Sar][Trp(βS-Me,7-OMe)][X1][Nle][4Pal][Pip(4-aza)]W[dPro(4S-NH2)]N))",1.3
